Assay results as given in patent US20070207980A1, “Chp-gemcitabine Combination Agents And Their Use As Anti-Tumor Agents” (priority 2003, published 2007).

Tests used:
A498 = experiment: Cell line screening of CHP anti-proliferation activity (chemosensitivity MTT assay); assay type: cell-based; conditions: Renal cell lines
Description: (§1) Unless otherwise stated, cell lines from the American Type Culture Collection (ATCC, Rockville, Md.) were used and cultured to confluence in a monolayer in RPMI-1640 bicarbonate medium (Seromed, Berlin, Germany) in an incubator ([…], 37° C.). The cells were examined for mycoplasma contaminations. The medium included 10% heat-inactivated fetal calf serum (Seromed) and 4 mM glutamine. The cells were cultured and passaged according to standard procedures (0.03% trypsin with 0.02% EDTA, 3 times a week) . The cell number was determined using a TOA Sysmex micro-cell counter (TOA, Tokyo, Japan).

A518 = experiment: as above; assay type: cell-based; conditions: Melanoma
Description: as §1

ACHN = experiment: as above; assay type: cell-based; conditions: Renal cell lines
Description: as §1

ASPC1 = experiment: as above; assay type: cell-based; conditions: Pancreas cell lines
Description: as §1

B607 = experiment: as above; assay type: cell-based; conditions: Melanoma
Description: as §1

BxPC3 [1] = experiment: as above; assay type: cell-based; conditions: Pancreas cell lines
Description: as §1

CR01 = experiment: as above; assay type: cell-based; conditions: Carcinoids
Description: as §1

CR02 = experiment: as above; assay type: cell-based; conditions: Carcinoids
Description: as §1

Calc22 = experiment: as above; assay type: cell-based; conditions: Osteoblasts
Description: as §1

Capanl = experiment: as above; assay type: cell-based; conditions: Pancreas cell lines
Description: as §1

Colo205 = experiment: as above; assay type: cell-based; conditions: Colon cell lines
Description: as §1

Colo320DM = experiment: as above; assay type: cell-based; conditions: Colon cell lines
Description: as §1

DLD1 = experiment: as above; assay type: cell-based; conditions: Colon cell lines
Description: as §1

Fib2 (PPH) = experiment: as above; assay type: cell-based; conditions: Fibroblasts
Description: as §1

Fib3 (PPH) = experiment: as above; assay type: cell-based; conditions: Fibroblasts
Description: as §1

HCT-15 = experiment: as above; assay type: cell-based; conditions: Colon cell lines
Description: as §1

HOS = experiment: as above; assay type: cell-based; conditions: Osteosarcoma tissue
Description: as §1

HT29 = experiment: as above; assay type: cell-based; conditions: Colon cell lines
Description: as §1

JVSO = experiment: as above; assay type: cell-based; conditions: Melanoma
Description: as §1

K562 = experiment: as above; assay type: cell-based; conditions: Leukemia cells
Description: as §1

MCF-7 = experiment: as above; assay type: cell-based; conditions: Breast tissue
Description: as §1

MDA-MBA231 = experiment: as above; assay type: cell-based; conditions: Breast tissue
Description: as §1

MIAPaCa2 = experiment: as above; assay type: cell-based; conditions: Pancreas cell lines
Description: as §1

Me128 = experiment: as above; assay type: cell-based; conditions: Melanoma
Description: as §1

PANC1 = experiment: as above; assay type: cell-based; conditions: Pancreas cell lines
Description: as §1

PC3 = experiment: as above; assay type: cell-based; conditions: Prostate tissue
Description: as §1

SW480 (Ccl228) = experiment: as above; assay type: cell-based; conditions: Colon cell lines
Description: as §1

SW620(Ccl227) = experiment: as above; assay type: cell-based; conditions: Colon cell lines
Description: as §1

T47D = experiment: as above; assay type: cell-based; conditions: Breast tissue
Description: as §1

WI38 = experiment: as above; assay type: cell-based; conditions: Fibroblasts
Description: as §1

PANC-1 cells = experiment: Effect of combined agents releasing gemcitabine first (Table 2); conditions: no gemcitabine first
Description: (§2) The chemosensitivity assay was performed in a 96-well microtiter plate with 10^4 cells per well and 100 μl of medium, and the components to be tested were supplied in a volume of 100 μl. All components were diluted on the microtiter plates, and the plates were incubated under cell culture conditions for 4 days, except for those tests wherein the ratio between application time and reaction was to be determined. The viability of the cells, including the mitochondrial activity, i.e., the ratio of cell survival rate and cell number, was determined using an MTT assay.
(§3) Combined agents of the invention sequentially releasing CHP and gemcitabine were also tested. […] Agents were used in cell cultures, which agents initially release CHP, followed by gemcitabine after 24 hours and 48 hours, respectively. […] Combined agents were used which released 1 μg/ml gemcitabine, followed by CHP after 12, 24 and 48 hours, respectively.

BxPC3 [2] = experiment: as above; conditions: no gemcitabine first
Description: as §2, §3

## O=C(O)[C@@H]1C[C@@H](O)CN1 (relative stereo) [CHP, cis-hydroxyproline]
A498
  Reaction (CHP anti-proliferation activity): −6%
A518
  Reaction (CHP anti-proliferation activity): resistant
ACHN
  Reaction (CHP anti-proliferation activity): resistant
ASPC1
  Reaction (CHP anti-proliferation activity): −42%
B607
  Reaction (CHP anti-proliferation activity): −12%
BxPC3 [1]
  Reaction (CHP anti-proliferation activity): −41%
CR01
  Reaction (CHP anti-proliferation activity): −35%
CR02
  Reaction (CHP anti-proliferation activity): −13%
Calc22
  Reaction (CHP anti-proliferation activity): +8%
Capanl
  Reaction (CHP anti-proliferation activity): −66%
Colo205
  Reaction (CHP anti-proliferation activity): −66%
Colo320DM
  Reaction (CHP anti-proliferation activity): −11%
DLD1
  Reaction (CHP anti-proliferation activity): −19.8%
Fib2 (PPH)
  Reaction (CHP anti-proliferation activity): resistant
Fib3 (PPH)
  Reaction (CHP anti-proliferation activity): −14%
HCT-15
  Reaction (CHP anti-proliferation activity): −10%
HOS
  Reaction (CHP anti-proliferation activity): −68%
HT29
  Reaction (CHP anti-proliferation activity): −48%
JVSO
  Reaction (CHP anti-proliferation activity): −15%
K562
  Reaction (CHP anti-proliferation activity): −11%
MCF-7
  Reaction (CHP anti-proliferation activity): −43%
MDA-MBA231
  Reaction (CHP anti-proliferation activity): resistant
MIAPaCa2
  Reaction (CHP anti-proliferation activity): −45.7%
Me128
  Reaction (CHP anti-proliferation activity): resistant
PANC1
  Reaction (CHP anti-proliferation activity): −54%
PC3
  Reaction (CHP anti-proliferation activity): resistant
SW480 (Ccl228)
  Reaction (CHP anti-proliferation activity): −58%
SW620(Ccl227)
  Reaction (CHP anti-proliferation activity): −66.4%
T47D
  Reaction (CHP anti-proliferation activity): −34%
WI38
  Reaction (CHP anti-proliferation activity): resistant
PANC-1 cells; CHP 3 μg/ml
  PANC-1 control: 98.8 ± 4.0
PANC-1 cells; CHP 6.1 μg/ml
  PANC-1 control: 96.0 ± 6.0
PANC-1 cells; CHP 12.5 μg/ml
  PANC-1 control: 90.8 ± 4.1
PANC-1 cells; CHP 25 μg/ml
  PANC-1 control: 95.9 ± 5.1
PANC-1 cells; CHP 50 μg/ml
  PANC-1 control: 94.8 ± 6.4
PANC-1 cells; CHP 100 μg/ml
  PANC-1 control: 95.1 ± 2.3
BxPC3 [2]; CHP 6.1 μg/ml
  BxPC3 control: 103.5 ± 2.6
BxPC3 [2]; CHP 12.5 μg/ml
  BxPC3 control: 102.6 ± 1.7
BxPC3 [2]; CHP 25 μg/ml
  BxPC3 control: 99.9 ± 3.1
BxPC3 [2]; CHP 50 μg/ml
  BxPC3 control: 99.8 ± 4.3
BxPC3 [2]; CHP 100 μg/ml
  BxPC3 control: 105.2 ± 5.4
